Source: ChEMBL document CHEMBL1136666, “Indanyl piperazines as melatonergic MT2 selective agents” (Bioorg Med Chem Lett, 2003)

Tests used:
[1] = molecular target: T1, Melatonin receptor type 1B (Homo sapiens, UniProt P49286); test: In vitro receptor binding at MT2 (Melatonin) receptor.
T1 sequence (P49286 whole entry): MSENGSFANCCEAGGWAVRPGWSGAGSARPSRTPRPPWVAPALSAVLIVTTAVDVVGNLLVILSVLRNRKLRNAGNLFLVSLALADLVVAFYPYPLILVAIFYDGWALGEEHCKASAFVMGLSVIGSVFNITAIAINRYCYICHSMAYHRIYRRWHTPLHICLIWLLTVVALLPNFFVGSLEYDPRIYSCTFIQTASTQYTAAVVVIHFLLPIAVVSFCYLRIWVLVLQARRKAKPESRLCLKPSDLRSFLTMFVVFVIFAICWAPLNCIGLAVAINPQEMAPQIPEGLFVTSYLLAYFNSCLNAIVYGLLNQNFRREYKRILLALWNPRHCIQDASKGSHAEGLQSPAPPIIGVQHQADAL

[2] = molecular target: Melatonin receptor type 1A (Homo sapiens, UniProt P48039); test: In vitro receptor binding at MT1 (Melatonin) receptor.
[3] = molecular target: T1, Melatonin receptor type 1B; test: Effective concentration against human MT2 (Melatonin) receptor stably expressed in NIH3T3 cells in adenylyl cyclase assay; format: functional, cell-based

Chain of Melatonin receptor type 1A (P48039 whole entry): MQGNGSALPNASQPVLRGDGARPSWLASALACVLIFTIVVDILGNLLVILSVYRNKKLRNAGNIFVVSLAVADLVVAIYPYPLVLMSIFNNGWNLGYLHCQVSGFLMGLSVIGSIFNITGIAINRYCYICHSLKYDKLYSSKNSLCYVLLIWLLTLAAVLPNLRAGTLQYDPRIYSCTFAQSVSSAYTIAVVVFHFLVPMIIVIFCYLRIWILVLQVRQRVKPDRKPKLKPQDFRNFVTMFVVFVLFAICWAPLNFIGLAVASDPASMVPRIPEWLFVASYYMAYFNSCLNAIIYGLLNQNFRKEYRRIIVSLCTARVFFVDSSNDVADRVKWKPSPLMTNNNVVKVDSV

Compound | IC50 [1] | IC50 [2] | EC50 [3]
COc1ccc(F)c(CN2CCN(C(=O)C3CC3)CC2)c1 | 270 nM | > 1000 nM | –
COc1ccc(F)c(CN2CCN(C(=O)C(C)C)CC2)c1 | 224 nM | > 1000 nM | –
COc1ccc2c(c1)[C@@H](N1CCN(C(=O)C(C)C)CC1)CC2 | > 1000 nM | > 1000 nM | –
COc1ccc(F)c(CN2CCN(C(C)=O)CC2)c1 | > 1000 nM | > 1000 nM | –
CCNC(=O)N1CCN(c2cccc3ccc(OC)cc23)CC1 | > 1000 nM | > 1000 nM | –
CCNC(=O)N1CCN([C@H]2CCc3ccc(OC)cc32)CC1 | > 1000 nM | > 1000 nM | –
COc1ccc2c(c1)[C@@H](N1CCN(C(=O)C3CC3)CC1)CC2 | > 1000 nM | > 1000 nM | –
CCCCC(=O)N1CCN(C2CCc3ccc(OC)cc32)CC1 (stereo unspecified) | 103 nM | > 1000 nM | –

Now those with a lower IC50 [1], led by results:

IC50 [1] | IC50 [2] | EC50 [3] | Compound
1.5 nM | 160 nM | – | COc1ccc2c(c1)C(N1CCN(C(=O)C(C)C)CC1)CC2 (stereo unspecified)
32 nM | > 1000 nM | – | CCC(=O)N1CCN(C2CCc3ccc(OC)cc32)CC1 (stereo unspecified)
2.3 nM | > 1000 nM | – | CCCC(=O)N1CCN(C2CCc3ccc(OC)cc32)CC1 (stereo unspecified)
3 nM | 156 nM | – | COc1ccc2c(c1)C(N1CCN(C(=O)C3CC3)CC1)CC2 (stereo unspecified)
1.5 nM | 116 nM | – | COc1ccc2c(c1)[C@H](N1CCN(C(=O)C(C)C)CC1)CC2
90 nM | > 1000 nM | – | COc1ccc2cccc(N3CCN(C(=O)C4CC4)CC3)c2c1
94 nM | > 1000 nM | – | CCNC(=O)N1CCN(C2CCCc3ccc(OC)cc32)CC1 (stereo unspecified)
1.6 nM | 44.5 nM | – | COc1ccc2c(c1)[C@H](N1CCN(C(=O)C3CC3)CC1)CC2
75 nM | > 1000 nM | – | COc1ccc2c(c1)C(N1CCN(C(=O)C3CC3)CC1)CCC2 (stereo unspecified)
44 nM | > 1000 nM | – | COc1ccc2c(c1)C(N1CCN(C(C)=O)CC1)CC2 (stereo unspecified)
1.7 nM | 200 nM | 2.4 nM | CCNC(=O)N1CCN([C@@H]2CCc3ccc(OC)cc32)CC1
3.1 nM | > 1000 nM | – | CCNC(=O)N1CCN(C2CCc3ccc(OC)cc32)CC1 (stereo unspecified)
